Measurements: patent US6652890B2, “Tea catechins as cancer specific proliferation inhibitors” (Purdue Research Foundation, priority 1999, dated 2003)
Entries after “also recorded” stand apart in the source; their conditions may differ. Read-outs that look alike come from different tables or passages of the source. Blank lines part the entries; values can stand above or below the molecule they belong to.

What was measured:
[1] = target: T1, tNOX activity of intact 4T1 mouse mammary cells (Mus musculus, UniProt Q8R0Z2); test: Inhibition of tNOX (NADH oxidase) activity of intact 4T1 cells; type: cell-based; details: for Inhibition of residual tNOX remaining in the presence of EGCg, EC>90: estimated
T1 construct: endogenous in cells; host or cells: 4T1 mouse mammary carcinoma cells (intact)
T1 sequence (Q8R0Z2 1-598): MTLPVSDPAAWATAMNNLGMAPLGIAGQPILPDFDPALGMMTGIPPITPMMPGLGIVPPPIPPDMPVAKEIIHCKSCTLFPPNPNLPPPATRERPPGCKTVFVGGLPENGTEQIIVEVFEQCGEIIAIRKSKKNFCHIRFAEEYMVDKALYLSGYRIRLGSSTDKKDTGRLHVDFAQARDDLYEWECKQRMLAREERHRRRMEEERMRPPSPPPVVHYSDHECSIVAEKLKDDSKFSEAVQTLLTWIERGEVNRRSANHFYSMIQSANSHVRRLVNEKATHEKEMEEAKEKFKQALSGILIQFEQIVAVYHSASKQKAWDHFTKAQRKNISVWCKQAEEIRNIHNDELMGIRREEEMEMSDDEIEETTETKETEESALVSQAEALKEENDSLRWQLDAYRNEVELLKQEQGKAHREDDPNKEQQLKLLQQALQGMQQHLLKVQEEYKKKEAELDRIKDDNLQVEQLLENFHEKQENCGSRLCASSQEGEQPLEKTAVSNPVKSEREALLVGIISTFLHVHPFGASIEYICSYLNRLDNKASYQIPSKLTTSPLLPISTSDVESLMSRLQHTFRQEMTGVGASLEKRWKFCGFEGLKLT
Method: A mouse mammary tumor subpopulation line 4T1 arising from a BALB/cf C3H mouse was grown in DME-10, Dulbecco's modified Eagle's medium supplemented with 5% fetal calf serum, 5% newborn calf serum, 1 mM mixed non-essential amino acids, 2 mM L-glutamine, penicillin (100 units/ml), and streptomycin (100 μg/ml) (Miller et al., 1987, Brit. J. Can. 56:561-569 and Miller et al., 1990, Invasion Metastasis 10:101-112).
NADH oxidase activity was determined as the disappearance of NADH measured at 340 nm in a reaction mixture containing 25 mM Tris-Mes buffer (pH 7.2), 1 mM KCN, and 150 μM NADH at 37° C. Activity was measured using a Hitachi U3210 spectrophotometer with stirring and continuous recording over two intervals of 5 min each. A millimolar extinction coefficient of 6.22 was used to determine specific activity.
NADH oxidase activity was determined as the disappearance of NADH measured at 340 nm in a reaction mixture containing 25 mM Tris-Mes buffer (pH 7.2), 1 mM KCN, and 150 μM NADH at 37° C. Activity was measured at 340 nm with reference at 430 nm using an SLM Aminco DW-2000 spectrophotometer (Milton Roy, Rochester, N.Y.) in the dual beam mode of operation with stirring and continuous recording over two intervals of 5 min each. A millimolar extinction coefficient of 6.22 was used to determine specific activity.

[2] = tested on: 4T1 metastatic mouse mammary cancer cells; test: Killing of 4T1 metastatic mouse mammary cancer cells in culture; type: cell-based; details: EGCg 10^−7 M, EC 10^−4 M, alone or combined
4T1 mouse mammary cancer = test: Preliminary animal study, Balb/c mice with 4T1 mouse mammary cancer; type: in vivo; details: treated for 5 days, 100 μl/day; glaucarubolone 1 mg, EGCg + EC 0.2 + 1.2 mg per animal
[3] = Inhibition of residual tNOX remaining in the presence of EGCg, EC50, estimated, EGCg given as 0.1 mM (title), 10^−6 M (head), 10^−7 M
[4] = EGCg given as 0.1 mM (title), 10^−6 M (head), 10^−7 M

SMILES: Oc1cc(O)c2c(c1)O[C@H](c1cc(O)c(O)c(O)c1)[C@H](O)C2 [EGC, (−) - epigallocatechin]
EC50 [1, 3]: 1000 nM
Inhibition of residual tNOX remaining in the presence of EGCg, EC>90 [1, 4]: 10^−5 M

SMILES: O=C(O[C@@H]1Cc2c(O)cc(O)cc2O[C@H]1c1cc(O)c(O)c(O)c1)c1cc(O)c(O)c(O)c1 [GCG, gallocatechin gallate]
Inhibition of residual tNOX remaining in the presence of EGCg, EC>90 [1, 4]: Not reached due
Effect on NOX activity ([1]; in the presence of 10^−7 M EGCg): less effective; also recorded: less affected

SMILES: CC1=CC(=O)[C@@H](O)[C@]2(C)[C@H]3[C@@]4(O)OC[C@]35[C@H]([C@@H](C)[C@H]4O)[C@@H](O)C(=O)O[C@@H]5C[C@@H]12 [Glaucarubolone, glaucarubolone]
Tumor wt (4T1 mouse mammary cancer): 1.5 ± 0.1 g

The next lines start with results.

Effect on NOX activity ([1]; in the presence of 10^−7 M EGCg, listed as Catechin): largely without effect
Effect on NOX activity ([1]; in the presence of 10^−7 M EGCg, listed as ±catechin): little affected
SMILES: Oc1cc(O)c2c(c1)OC(c1ccc(O)c(O)c1)C(O)C2 (racemic) [C, (±) - catechin]

EC50 for tNOX inhibition by (−)-epicatechin ([1]; EGCg concentration 0 M, EGCg alone): No effect
EC50 for tNOX inhibition by (−)-epicatechin ([1]; EGCg concentration 0 M, supplied as Tegreen™): No effect
EC50 ([1]; EGCg concentration 10^−4 M, EGCg alone, read-out: EC50 for tNOX inhibition by (−)-epicatechin): 500 ± 400 nM
EC50 ([1]; EGCg concentration 10^−4 M, supplied as Tegreen™, read-out: EC50 for tNOX inhibition by (−)-epicatechin): 300 ± 200 nM
EC50 ([1]; EGCg concentration 10^−5 M, EGCg alone, read-out: EC50 for tNOX inhibition by (−)-epicatechin): 700 ± 300 nM
EC50 ([1]; EGCg concentration 10^−6 M, EGCg alone, read-out: EC50 for tNOX inhibition by (−)-epicatechin): 150 ± 50 nM
EC50 ([1]; EGCg concentration 10^−6 M, supplied as Tegreen™, read-out: EC50 for tNOX inhibition by (−)-epicatechin): 500 ± 400 nM
EC50 ([1]; EGCg concentration 10^−7 M, EGCg alone, read-out: EC50 for tNOX inhibition by (−)-epicatechin): 200 ± 100 nM
EC50 for tNOX inhibition by (−)-epicatechin ([1]; EGCg concentration 10^−7 M, supplied as Tegreen™): No effect
EC50 for tNOX inhibition by (−)-epicatechin ([1]; EGCg concentration 10^−8 M, EGCg alone): No effect
EC50 for tNOX inhibition by (−)-epicatechin ([1]; EGCg concentration 10^−8 M, supplied as Tegreen™): No effect
EC50 ([1]; in the presence of 10^−7 M EGCg, read-out: EC50 of EC): ~200 nM
SMILES: Oc1cc(O)c2c(c1)O[C@H](c1ccc(O)c(O)c1)[C@H](O)C2 [EC, (−) - epicatechin]
Increase in cell number cm^−2 over 72 h · 10^2 [2]: 560 cm^−2 · 10^2

EC50 [1, 3]: 500 nM
Inhibition of residual tNOX remaining in the presence of EGCg, EC>90 [1, 4]: 10^−6 M
SMILES: O=C(O[C@@H]1Cc2c(O)cc(O)cc2O[C@@H]1c1ccc(O)c(O)c1)c1cc(O)c(O)c(O)c1 [ECG, (−) - epicatechin gallate]
